#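 The compound was tested at five concentrations on cells cultured in 96-well plates, with a 48-hour exposure period. GI50 is the concentration that inhibits growth by half. Definition used: TGI = concentration required for complete inhibition of growth.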
# How the values were obtained:
# Experiment in all cases: NCI-60 cell line screen, 48 h
# NCI/ADR-RES ovarian = system: NCI/ADR-RES ovarian
# MDA-MB-231 breast = system: MDA-MB-231 breast
# LOX IMVI melanoma = system: LOX IMVI melanoma
# MALME-3M melanoma = system: MALME-3M melanoma
# SF-268 CNS = system: SF-268 CNS
# COLO 205 colon = system: COLO 205 colon
# SNB-19 CNS = system: SNB-19 CNS
# PC-3 prostate = system: PC-3 prostate
# HOP-62 NSCLC = system: HOP-62 NSCLC
# OVCAR-5 ovarian = system: OVCAR-5 ovarian
# TK-10 renal = system: TK-10 renal
# RXF 393 renal = system: RXF 393 renal
# SK-MEL-2 melanoma = system: SK-MEL-2 melanoma
# NCI-H460 lung = system: NCI-H460 lung
# K-562 leukemia = system: K-562 leukemia
# SR leukemia = system: SR leukemia
# NCI-H522 lung = system: NCI-H522 lung
# T-47D breast = system: T-47D breast
# UACC-62 melanoma = system: UACC-62 melanoma
# MOLT-4 leukemia = system: MOLT-4 leukemia
# ACHN renal = system: ACHN renal
# SN12C renal = system: SN12C renal
# NCI-H226 lung = system: NCI-H226 lung
# SF-539 CNS = system: SF-539 CNS
# U251 CNS = system: U251 CNS
# MDA-MB-435 = system: MDA-MB-435
# SNB-75 CNS = system: SNB-75 CNS
# EKVX NSCLC = system: EKVX NSCLC
# HT29 colon = system: HT29 colon
# A549 NSCLC = system: A549 NSCLC
# SW-620 colon = system: SW-620 colon
# OVCAR-8 ovarian = system: OVCAR-8 ovarian
# SK-MEL-28 melanoma = system: SK-MEL-28 melanoma
# A498 renal = system: A498 renal
# UO-31 renal = system: UO-31 renal
# IGROV1 ovarian = system: IGROV1 ovarian
# BT-549 breast = system: BT-549 breast
# HCT-15 colon = system: HCT-15 colon
# DU-145 prostate = system: DU-145 prostate
# UACC-257 melanoma = system: UACC-257 melanoma
# OVCAR-3 ovarian = system: OVCAR-3 ovarian
# HL-60(TB) leukemia = system: HL-60(TB) leukemia
# RPMI-8226 leukemia = system: RPMI-8226 leukemia
# SK-OV-3 ovarian = system: SK-OV-3 ovarian
# M14 melanoma = system: M14 melanoma
# OVCAR-4 ovarian = system: OVCAR-4 ovarian
# HS 578T breast = system: HS 578T breast
# NCI-H23 lung = system: NCI-H23 lung
# KM12 colon = system: KM12 colon
# MCF7 breast = system: MCF7 breast
# CAKI-1 renal = system: CAKI-1 renal
# SK-MEL-5 melanoma = system: SK-MEL-5 melanoma
# HCC-2998 colon = system: HCC-2998 colon
# CCRF-CEM leukemia = system: CCRF-CEM leukemia
# HCT-116 colon = system: HCT-116 colon
compound,measurement,setting,value
O=C(NCc1cn(Cc2cccc(Oc3ccccc3)c2)nn1)c1cccnc1NCc1ccc(Cl)cc1,GI50,NCI/ADR-RES ovarian,2.86 µM
same,TGI,NCI/ADR-RES ovarian,> 100 µM
same,GI50,MDA-MB-231 breast,2.29 µM
same,TGI,MDA-MB-231 breast,6.14 µM
same,GI50,LOX IMVI melanoma,3.9 µM
same,TGI,LOX IMVI melanoma,> 100 µM
same,GI50,MALME-3M melanoma,5.69 µM
same,TGI,MALME-3M melanoma,> 100 µM
same,GI50,SF-268 CNS,4.82 µM
same,TGI,SF-268 CNS,> 100 µM
same,GI50,COLO 205 colon,2.18 µM
same,TGI,COLO 205 colon,4.04 µM
same,GI50,SNB-19 CNS,3.91 µM
same,TGI,SNB-19 CNS,> 100 µM
same,GI50,PC-3 prostate,2.96 µM
same,TGI,PC-3 prostate,> 100 µM
same,GI50,HOP-62 NSCLC,5.69 µM
same,TGI,HOP-62 NSCLC,> 100 µM
same,GI50,OVCAR-5 ovarian,5.62 µM
same,TGI,OVCAR-5 ovarian,> 100 µM
same,GI50,TK-10 renal,3.7 µM
same,TGI,TK-10 renal,49.1 µM
same,GI50,RXF 393 renal,2.19 µM
same,TGI,RXF 393 renal,7.81 µM
same,GI50,SK-MEL-2 melanoma,4.44 µM
same,TGI,SK-MEL-2 melanoma,> 100 µM
same,GI50,NCI-H460 lung,2.85 µM
same,TGI,NCI-H460 lung,7.83 µM
same,GI50,K-562 leukemia,3.24 µM
same,TGI,K-562 leukemia,> 100 µM
same,GI50,SR leukemia,3.31 µM
same,TGI,SR leukemia,> 100 µM
same,GI50,NCI-H522 lung,2.18 µM
same,TGI,NCI-H522 lung,5.68 µM
same,GI50,T-47D breast,3.2 µM
same,TGI,T-47D breast,42.9 µM
same,GI50,UACC-62 melanoma,2.08 µM
same,TGI,UACC-62 melanoma,6.92 µM
same,GI50,MOLT-4 leukemia,3.28 µM
same,TGI,MOLT-4 leukemia,8.76 µM
same,GI50,ACHN renal,4.03 µM
same,TGI,ACHN renal,> 100 µM
same,GI50,SN12C renal,3.44 µM
same,TGI,SN12C renal,> 100 µM
same,GI50,NCI-H226 lung,4.23 µM
same,TGI,NCI-H226 lung,> 100 µM
same,GI50,SF-539 CNS,2.24 µM
same,TGI,SF-539 CNS,5.17 µM
same,GI50,U251 CNS,2.66 µM
same,TGI,U251 CNS,8.7 µM
same,GI50,MDA-MB-435,2.33 µM
same,TGI,MDA-MB-435,7.37 µM
same,GI50,SNB-75 CNS,2.02 µM
same,TGI,SNB-75 CNS,7.77 µM
same,GI50,EKVX NSCLC,3.65 µM
same,TGI,EKVX NSCLC,> 100 µM
same,GI50,HT29 colon,2.96 µM
same,TGI,HT29 colon,7.56 µM
same,GI50,A549 NSCLC,3.21 µM
same,TGI,A549 NSCLC,> 100 µM
same,GI50,SW-620 colon,4.04 µM
same,TGI,SW-620 colon,> 100 µM
same,GI50,OVCAR-8 ovarian,3.63 µM
same,TGI,OVCAR-8 ovarian,> 100 µM
same,GI50,SK-MEL-28 melanoma,2.95 µM
same,TGI,SK-MEL-28 melanoma,> 100 µM
same,GI50,A498 renal,2.12 µM
same,TGI,A498 renal,7.95 µM
same,GI50,UO-31 renal,3 µM
same,TGI,UO-31 renal,> 100 µM
same,GI50,IGROV1 ovarian,9.03 µM
same,TGI,IGROV1 ovarian,> 100 µM
same,GI50,BT-549 breast,2.72 µM
same,TGI,BT-549 breast,7.63 µM
same,GI50,HCT-15 colon,3.39 µM
same,TGI,HCT-15 colon,> 100 µM
same,GI50,DU-145 prostate,4 µM
same,TGI,DU-145 prostate,> 100 µM
same,GI50,UACC-257 melanoma,3.83 µM
same,TGI,UACC-257 melanoma,> 100 µM
same,GI50,OVCAR-3 ovarian,3.48 µM
same,TGI,OVCAR-3 ovarian,9.55 µM
same,GI50,HL-60(TB) leukemia,3.39 µM
same,TGI,HL-60(TB) leukemia,8.07 µM
same,GI50,RPMI-8226 leukemia,3.12 µM
same,TGI,RPMI-8226 leukemia,> 100 µM
same,GI50,SK-OV-3 ovarian,3.32 µM
same,TGI,SK-OV-3 ovarian,69.2 µM
same,GI50,M14 melanoma,2.49 µM
same,TGI,M14 melanoma,5.7 µM
same,GI50,OVCAR-4 ovarian,3.37 µM
same,TGI,OVCAR-4 ovarian,> 100 µM
same,GI50,HS 578T breast,2.72 µM
same,TGI,HS 578T breast,> 100 µM
same,GI50,NCI-H23 lung,3.66 µM
same,TGI,NCI-H23 lung,> 100 µM
same,GI50,KM12 colon,3.62 µM
same,TGI,KM12 colon,> 100 µM
same,GI50,MCF7 breast,2.99 µM
same,TGI,MCF7 breast,> 100 µM
same,GI50,CAKI-1 renal,4.36 µM
same,TGI,CAKI-1 renal,> 100 µM
same,GI50,SK-MEL-5 melanoma,2.53 µM
same,TGI,SK-MEL-5 melanoma,7.4 µM
same,GI50,HCC-2998 colon,4.17 µM
same,TGI,HCC-2998 colon,28.1 µM
same,GI50,CCRF-CEM leukemia,3.05 µM
same,TGI,CCRF-CEM leukemia,> 100 µM
same,GI50,HCT-116 colon,3.18 µM
same,TGI,HCT-116 colon,9.4 µM

# From PubChem BioAssay (NCI)
